We go through 4 compounds from ChEMBL document CHEMBL1143290, “In vitro anti-inflammatory activity of lignans isolated from Magnolia fargesii” (Bioorg Med Chem Lett, 2009).

One assay has as its system BV-2. The assay is described as follows: Inhibition of NO production in LPS-stimulated mouse BV2 cells assessed as nitrite accumulation after 20 hrs by Griess reagent method. It is filed as functional, cell-based. The conditions noted are these: BV-2, 20 h. Background: Griess reagent forms a coloured azo dye with nitrite.
Assay [1] in a line: Inhibition of NOS.

Broadly, the IC50 is the point on the concentration scale where inhibition reaches its midpoint. As for `COc1cc([C@H]2OC[C@H]3[C@@H]2CO[C@@H]3c2cc(OC)c(OC)c(OC)c2)cc(OC)c1OC`, the IC50 in the assay with BV-2 stood at 28.6 µM.
Still for that read-out and setting: next, `COc1ccc([C@H]2OC[C@H]3[C@@H]2CO[C@@H]3c2cc(OC)c(OC)c(OC)c2)cc1OC`: 20.5 µM.
Still for that read-out and setting: the same measure for `COc1ccc([C@H]2OC[C@H]3[C@@H]2CO[C@@H]3c2ccc(OC)c(OC)c2)cc1OC` [(+)-EUDESMIN]: 30 µM.
As to `CNC(=N)NCCC[C@H](N)C(=O)O` [TILARGININE], in assay [1], the concentration for half-maximal inhibition (IC50) came to 19.2 µM.
